In PubChem BioAssay (NCI) one finds TGI data, which are given here for 12 compounds.

What all share (assay): inhibition of tumour cell growth, NCI panel, 48 h
For assay [1], the system named is BT-549 breast.
For assay [2], the system named is HOP-92 NSCLC.
Assay [3] deals with KM12 colon.
The test system of assay [4] is NCI-H23 lung.
The test system of assay [5] is NCI/ADR-RES ovarian.
For assay [6], the system named is OVCAR-4 ovarian.
Assay [7] deals with SF-268 CNS.
Assay [8] concerns SK-MEL-28 melanoma.
Assay [9] has as its system SN12C renal.
The test system of assay [10] is UO-31 renal.

SMILES strings stand for the structures.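 The compound was tested at five concentrations on cells cultured in 96-well plates, with a 48-hour exposure period. At the TGI there is no net growth.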

For the compound `O=C(O)C(F)(F)C(F)(F)C(F)(F)C(F)(F)C(=O)O`, the TGI in assay [1], in assay [2], in assay [3], in [4], in assay [5] and in assay [6] was above 100 µM each time. The TGI in [7], in assay [8], in assay [9] and in assay [10] was above 100 µM throughout.

For the compound `CCSCC(=O)N1CCc2c([nH]c3ccccc23)C1=O`, the TGI in [1] is above 100 µM; in assay [2], 92.8 µM; in [3], above 100 µM; in assay [4], above 100 µM; in assay [5], above 100 µM; in assay [6], above 100 µM. Moreover, the TGI in assay [7], in [8], in [9] and in [10] was above 100 µM each time.

Consider `COC(=O)C1=COC(C)C2C[n+]3ccc4c([nH]c5ccccc54)c3CC12` (stereo not drawn), for which the TGI in assay [1], in assay [2], in assay [3], in [4], in assay [5] and in assay [6] was above 100 µM each time. Moreover, the TGI in [7], in assay [8], in assay [9] and in assay [10] was above 100 µM throughout.

`Cc1ccc(S(=O)(=O)NC(=O)NC(Cc2ccccc2)C(=O)O)cc1` (stereo not drawn): the TGI in assay [1], in [2], in assay [3], in assay [4], in assay [5] and in assay [6] was above 100 µM throughout. The TGI in assay [7], in assay [8], in [9] and in assay [10] was above 100 µM in each case.

Take `Cc1ccc(S(=O)(=O)N(CC(O)c2ccccc2)c2ccccc2F)cc1` (stereo not drawn): the TGI is 32 µM in assay [1]; 22.9 µM in assay [2]; 42.6 µM in [3]; 36.9 µM in assay [4]; 35.1 µM in [5]; 27.4 µM in [6]. Moreover, the TGI in [7] amounted to 31.1 µM; in [8], 33.1 µM; in [9] it was 34.3 µM; in assay [10] it was 29.8 µM.

With `CSc1nc2c(c(=O)n1C)N=C(c1ccc(Cl)cc1)CC(c1ccccc1)N2` (stereo not drawn), the TGI in [1] was 56.1 µM; in assay [2], above 100 µM; in assay [3], 31.7 µM; in assay [4], 62 µM; in assay [5] it was 74.1 µM; in [6], 23.7 µM. The figures for the TGI in assay [8], in [9] and in assay [10] were above 100 µM, 39.4 µM and above 100 µM, respectively.

Turning to `CC1(C)CC(=O)C2=C(C1)NC(SCC(=O)O)=C(C#N)C2c1ccc(Br)cc1` (stereo not drawn), the TGI in [1], in assay [2], in assay [3], in assay [4], in [5] and in assay [6] was above 100 µM throughout. Moreover, the values for the TGI in assay [7], in assay [8] and in [10] were above 100 µM, above 100 µM and 15.6 µM, respectively.

Take `NNC(=Nc1ccccc1)SCc1ccccc1`: the TGI in assay [1], in assay [2], in assay [3], in assay [4], in assay [5] and in assay [6] was above 100 µM throughout. Besides, the TGI in [8], in assay [9] and in assay [10] was above 100 µM in each case.

On to `[N-]=[N+]=NC1=NNC2(C(=O)N1)c1ccccc1-c1ccccc12`, for which the TGI in assay [1], in [2], in [4], in [5], in [6] and in assay [7] was above 100 µM each time. The TGI in assay [8], in assay [9] and in [10] was above 100 µM each time.

Regarding `CN(C)c1ccc(/C=N/n2c(-c3ccccc3)nc3ccccc3c2=O)cc1`, the TGI in [1], in [2], in assay [3], in [4], in assay [5] and in assay [6] was above 100 µM throughout. Besides, the TGI in assay [7], in assay [8] and in assay [9] was above 100 µM each time.

`NC(CCl)=NC1CN2CCC1CC2` (stereo not drawn): the TGI in assay [1], in [2], in [3], in [4], in assay [5] and in assay [6] was above 100 µM in each case. The TGI in assay [7], in assay [8] and in [9] was above 100 µM in each case.

Turning to `CC(C)(C)OC(=O)NC1CCCC1C(O)(C1=CCCC1)C1=CCCC1` (stereo not drawn), the TGI in assay [1], in assay [2], in assay [3], in assay [4], in assay [5] and in assay [6] was above 100 µM each time. Besides, the TGI in assay [7], in [8] and in [9] was above 100 µM throughout.
